Results published in the NIST ThermoML archive (doi:10.1021/acs.jced.8b00663).
Numbers after ± are expanded uncertainties.

Tests used:
[1] = Crystal; DTA
[2] = Molar enthalpy of transition or fusion; conditions: Crystal; DSC

For `CCOC(=O)C1=C[C@]2(CC)CCCN3CCc4c(n1c1ccccc41)[C@@H]32` [vinpocetine], the Normal melting temperature [1] was 149.00 ± 1.1 °C and the “Molar enthalpy of transition or fusion” value [2] was 8.93 ± 0.406 kcal/mol.
